# Data taken from US8614203B2, “Methods for the treatment of a central nervous system injury via a tapered administration protocol” (Emory University, priority 2005, dated 2013).
# Columns and labels:
# [1] = system: medial frontal cortex (MFC) injury or sham; test: Example 4: Digiscan locomotor activity boxes (center time); type: in vivo, Sprague-Dawley rats
# Description: (§1) 60 male Sprague-Dawley rats weighing 290-310 g at the time of injury were used in this experiment. Food and water were provided ad libidum before and after surgery. Animals were handled and weighed daily from their arrival, seven days pre-surgery, to brain extraction three weeks post-surgery. Animals were handled in squads of 12, with n=10 per experimental condition. All animal procedures were approved by the Emory University Animal Care and Use Committee, Protocol #131-2002.
# (§2) Isofluorane anesthesia was induced for four minutes and 45 seconds at 5% and maintained at 2.5%. Normal body temperature was maintained with a surgical heating pad placed beneath the sterile dressings. The scalp incision area was shaved and sterilized with iodine and isopropanol. A midline incision was made along the scalp and the fascia cleared to expose the surface of the skull. Medial, lateral, and dorsal stereotaxic coordinates were determined at bregma, and a 5-7 mm diameter bilateral craniotomy was performed mid-sagitally, 3 mm anterior to bregma. […] Sutures were used to close the incision after bleeding ceased. Animals were placed in individual heated, clean recovery cages until they awakened, and were returned to clean individual home cages with accessible moistened food pellets. Sham animals were anesthetized, and an incision was made at the top of the head. The fascia was cleared to expose bregma, then the incision was sutured closed. Sham surgeries were matched to lesion surgeries for all experimental conditions.
# Sham (S) and lesion (L) animals were randomly assigned to one of three treatment groups: vehicle (VS, VL), acute withdrawal (AWS, AWL), and tapered withdrawal (TWS, TWL). […] Tapering was induced as halved dosages over the last two days of treatment. Dilutions for TW treatments were made with HBC stock. All injections were administered intraperitoneally at one hour post-injury, and subcutaneously at six hours post-injury and every 24 hours through the end of the treatment cycle. Five sets of 12 animals each were used, for a total n=10 for each experimental group over the entire experiment. Of these animals, all were used to acquire behavioral data, four samples were used for protein analysis, and six samples were used for histological analysis for each test condition.
# Random order, blinded testing occurred under red light in a quiet environment one day before injury, and one and seven days post-withdrawal. Up to four animals were tested using the Digiscan Activity Monitoring System (AccuScan Instruments, inc. Columbus, Ohio) in each trial, with a total of three trials per test day. Rats were placed in the furthest left corner of the Digiscan Activity Box. At that time, the toggle switch was flipped to ‘on’. At exactly five minutes the computer ceased testing, assuring that all tests were the same length regardless of start time. Files were saved according to date and trial number, and the number of fecal boli recorded. Activity boxes were cleaned with 70% ethanol and dried between trials. Center time was defined by the computer as the amount of time the animal spent exploring the activity box away from the corners.
# All results were expressed as the mean plus or minus the standard error of the mean. Statistical significance was set at p<0.05 for two-tailed tests, and data were analyzed using one-way analysis of variance (ANOVA) followed by LSD post hoc tests. […]
# BBB = conditions: in vitro (Betz et al. 1990); cited from earlier work
# HSP70 = test: Example 4: Western blotting densitometry, HSP70; type: in vivo, Sprague-Dawley rats
# Description: as §1, §2
# Sham (S) and lesion (L) animals were randomly assigned to one of three treatment groups: vehicle (VS, VL), acute withdrawal (AWS, AWL), and tapered withdrawal (TWS, TWL). […] Tapering was induced as halved dosages over the last two days of treatment. Dilutions for TW treatments were made with HBC stock. […]
# Brains for protein analysis were sectioned into the immediate area of the lesion and snap frozen in 2-methyl-butane chilled on dry ice. […] The amount of brain homogenate needed to standardize samples to 2 μg/μL for Western blotting was calculated from the results of these assays. […]
# [2] = system: medial frontal cortex injury; test: Example 3: lesion reconstruction (lesion volume); type: in vivo, Sprague-Dawley rats; conditions: tapered withdrawal, injured (TWI)
# Protocol: Male Sprague-Dawley rats received either medial frontal cortex injury or sham surgery. Injections were given 1 and 6 hours post-injury, and every 24 hours for 7 days. Treatment groups (n=8) encompassed injured (I) and sham (S) acute withdrawal (AW), tapered withdrawal (TW) and vehicle (V) treatments. TW injections were progressively halved over the final two treatments. Behavioral testing was conducted post-surgery, mid- and post-withdrawal. Activity boxes were used to investigate vertical movements and exploration: Sensory neglect and anxiety behaviors were also analyzed. Brain harvesting was performed at 8 days or 3 weeks post-injury. Perfused tissue sections were analyzed for lesion volume and immunohistochemical response. Fresh brain tissue was flash frozen in chilled 2-methyl butane, and then homogenized for Western blot analysis.
structure (smiles),measurement,setting,value
"CC(=O)[C@H]1CC[C@H]2[C@@H]3CCC4=CC(=O)CC[C@]4(C)[C@H]3CC[C@]12C [progesterone, pregn-4-ene-3,20-dione]",center time,"[1]; acute withdrawal, lesion (AWL), one and seven days post-withdrawal",increased center time compared to VL animals
same,center time,"[1]; acute withdrawal, sham (AWS), one day post-withdrawal",significantly less center time compared to other shams
same,center time,"[1]; sham groups (AWS, TWS, VS), seven days post-withdrawal",all sham animals spent equivalent center time
same,center time,"[1]; tapered withdrawal, lesion (TWL), one and seven days post-withdrawal",increased center time over AWL animals
same,center time,"[1]; tapered withdrawal, sham (TWS), one day post-withdrawal",increased center time at one day compared to VS animals
same,permeability of the BBB,BBB,"reduce the permeability of the BBB to macromolecules, but not ions"
same,HSP70 levels,"HSP70; all progesterone treatment vs vehicle-treated animals, three weeks post-injury",increased HSP70 compared to vehicle-treated animals
same,HSP70 levels,"HSP70; sham animals (AWS, TWS, VS)",Sham animals did not display any differences between treatment groups
same,HSP70 levels,"HSP70; tapered withdrawal, lesion (TWL) vs VL and AWL, three weeks post-injury",increased in TWL animals
same,lesion volume,[2],smallest lesion volume
